According to patent publication US20200024278A1, “COMPOSITION COMPRISING ANTIBIOTIC COMPOUND AND AN HETEROCYCLIC COMPOUND AND THEIR USE IN PREVENTING OR TREATING BACTERIAL INFECTIONS” (MUTABILIS, priority 2016, published 2020):
Where two headings read alike, the source gives them in different places.

Tests used:
Assay in all cases: MIC, broth microdilution (CLSI), substance alone or ATB combined with compound at 4 or 8 μg/mL
ECO 190317 = assay type: cell-based, E. coli; details: for MIC: Escherichia coli
Summary of the method: (§1)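 Per CLSI-M7-A7, MICs are determined in cation-adjusted Mueller-Hinton broth with a final inoculum of 5·10^5 CFU/mL. Plates incubate 16-20 h at 35° C in air and are read by eye. Fosfomycin assays carry 25 μg/ml glucose-6-phosphate.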

ECO UFR39 = assay type: cell-based, E. coli; details: for MIC: Escherichia coli
Summary of the method: as §1

KPN 6299 = assay type: cell-based, K. pneumoniae; details: for MIC: Klebsiella pneumoniae
Summary of the method: as §1

KPN BAA-1898 = assay type: cell-based, K. pneumoniae; details: for MIC: Klebsiella pneumoniae, BAA1898
Summary of the method: as §1

KPN UFR42 = assay type: cell-based, K. pneumoniae; details: for MIC: Klebsiella pneumoniae
Summary of the method: as §1

ECL P99 = assay type: cell-based, E. cloacae; details: ECL P99
Summary of the method: as §1

C=CC1=C(C(=O)O)N2C(=O)[C@@H](NC(=O)/C(=N\OCC(=O)O)c3csc(N)n3)[C@H]2SC1 [FIX, Cefixime, reference compound]
MIC ATB combined with Example 1 @8 μg/ml (ECO 190317; ECO 190317, with Example 1 @8 μg/ml): <0.031 µg/mL
MIC ATB combined with Example 1 @8 μg/ml (ECO 190317; ECO 190317, with Example 1 at 8 μg/ml): <0.031 µg/mL
MIC ATB combined with Example 7 @8 μgml (ECO 190317; ECO 190317, with Example 7 at 8 μg/ml): <0.031 µg/mL
MIC ATB combined with Example 9 @4 μg/ml (ECO 190317; ECO 190317, with Example 9 @4 μg/ml): <0.031 µg/mL
MIC ATB combined with Example 9 @4 μg/ml (ECO 190317; ECO 190317, with Example 9 at 4 μg/ml): <0.031 µg/mL
MIC ATB combined with Example 11 @8 μg/ml (ECO 190317; ECO 190317, with Example 11 at 8 μg/ml): <0.031 µg/mL
MIC ATB combined with Example 12 @8 μg/ml (ECO 190317; ECO 190317, with Example 12 at 8 μg/ml): <0.031 µg/mL
MIC ATB combined with Example 13 @8 μg/ml (ECO 190317; ECO 190317, with Example 13 at 8 μg/ml): <0.031 µg/mL
MIC ATB combined with Example 14 @8 μg/ml (ECO 190317; ECO 190317, with Example 14 at 8 μg/ml): <0.031 µg/mL
MIC ATB combined with Example 15 @4 μgml (ECO 190317; ECO 190317, with Example 15 at 4 μg/ml): <0.031 µg/mL
MIC ATB combined with Example 16 @4 μg/ml (ECO 190317; ECO 190317, with Example 16 at 4 μg/ml): <0.031 µg/mL
MIC (ECO 190317): > 128 µg/mL
MIC (ECO 190317; ECO 190317, antibiotic alone, read-out: MIC ATB alone): 256 µg/mL
MIC ATB combined with Example 1 @8 μg/ml (ECO UFR39; ECO UFR39, with Example 1 @8 μg/ml): >32 µg/mL
MIC ATB combined with Example 1 @8 μg/ml (ECO UFR39; ECO UFR39, with Example 1 at 8 μg/ml): >32 µg/mL
MIC ATB combined with Example 7 @8 μgml (ECO UFR39; ECO UFR39, with Example 7 at 8 μg/ml): <0.031 µg/mL
MIC ATB combined with Example 9 @4 μg/ml (ECO UFR39; ECO UFR39, with Example 9 @4 μg/ml): <0.031 µg/mL
MIC ATB combined with Example 9 @4 μg/ml (ECO UFR39; ECO UFR39, with Example 9 at 4 μg/ml): <0.031 µg/mL
MIC ATB combined with Example 11 @8 μg/ml (ECO UFR39; ECO UFR39, with Example 11 at 8 μg/ml): <0.031 µg/mL
MIC ATB combined with Example 12 @8 μg/ml (ECO UFR39; ECO UFR39, with Example 12 at 8 μg/ml): <0.031 µg/mL
MIC ATB combined with Example 13 @8 μg/ml (ECO UFR39; ECO UFR39, with Example 13 at 8 μg/ml): <0.031 µg/mL
MIC ATB combined with Example 14 @8 μg/ml (ECO UFR39; ECO UFR39, with Example 14 at 8 μg/ml): <0.031 µg/mL
MIC ATB combined with Example 15 @4 μgml (ECO UFR39; ECO UFR39, with Example 15 at 4 μg/ml): <0.031 µg/mL
MIC ATB combined with Example 16 @4 μg/ml (ECO UFR39; ECO UFR39, with Example 16 at 4 μg/ml): <0.031 µg/mL
MIC (ECO UFR39): > 128 µg/mL
MIC (ECO UFR39; ECO UFR39, antibiotic alone, read-out: MIC ATB alone): > 512 µg/mL
MIC (KPN 6299; antibiotic alone, read-out: MIC ATB alone): 16 µg/mL
MIC (KPN 6299; substance alone, read-out: MIC): 16 µg/mL
MIC ATB combined with Example 1 @8 μg/ml (KPN 6299; with Example 1 @8 μg/ml): 0.063 µg/mL
MIC ATB combined with Example 1 @8 μg/ml (KPN 6299; with Example 1 at 8 μg/ml): 0.063 µg/mL
MIC ATB combined with Example 7 @8 μgml (KPN 6299; with Example 7 at 8 μg/ml): 0.063 µg/mL
MIC ATB combined with Example 9 @4 μg/ml (KPN 6299; with Example 9 @4 μg/ml): <=0.031 μg/mL
MIC ATB combined with Example 9 @4 μg/ml (KPN 6299; with Example 9 at 4 μg/ml): <=0.031 μg/mL
MIC ATB combined with Example 11 @8 μg/ml (KPN 6299; with Example 11 at 8 μg/ml): <0.031 µg/mL
MIC ATB combined with Example 12 @8 μg/ml (KPN 6299; with Example 12 at 8 μg/ml): <0.031 µg/mL
MIC ATB combined with Example 13 @8 μg/ml (KPN 6299; with Example 13 at 8 μg/ml): <=0.031 μg/mL
MIC ATB combined with Example 14 @8 μg/ml (KPN 6299; with Example 14 at 8 μg/ml): <0.031 µg/mL
MIC ATB combined with Example 15 @4 μgml (KPN 6299; with Example 15 at 4 μg/ml): <0.031 µg/mL
MIC ATB combined with Example 16 @4 μg/ml (KPN 6299; with Example 16 at 4 μg/ml): <0.031 µg/mL
MIC ATB combined with Example 1 @8 μg/ml (KPN BAA-1898; KPN BAA-1898, with Example 1 @8 μg/ml): 0.25 µg/mL
MIC ATB combined with Example 1 @8 μg/ml (KPN BAA-1898; KPN BAA-1898, with Example 1 at 8 μg/ml): 0.25 µg/mL
MIC ATB combined with Example 7 @8 μgml (KPN BAA-1898; KPN BAA-1898, with Example 7 at 8 μg/ml): 0.25 µg/mL
MIC ATB combined with Example 9 @4 μg/ml (KPN BAA-1898; KPN BAA-1898, with Example 9 @4 μg/ml): <0.031 µg/mL
MIC ATB combined with Example 9 @4 μg/ml (KPN BAA-1898; KPN BAA-1898, with Example 9 at 4 μg/ml): <0.031 µg/mL
MIC ATB combined with Example 11 @8 μg/ml (KPN BAA-1898; KPN BAA-1898, with Example 11 at 8 μg/ml): <0.031 µg/mL
MIC ATB combined with Example 12 @8 μg/ml (KPN BAA-1898; KPN BAA-1898, with Example 12 at 8 μg/ml): <0.031 µg/mL
MIC ATB combined with Example 13 @8 μg/ml (KPN BAA-1898; KPN BAA-1898, with Example 13 at 8 μg/ml): 0.5 µg/mL
MIC ATB combined with Example 14 @8 μg/ml (KPN BAA-1898; KPN BAA-1898, with Example 14 at 8 μg/ml): <0.031 µg/mL
MIC ATB combined with Example 15 @4 μgml (KPN BAA-1898; KPN BAA-1898, with Example 15 at 4 μg/ml): <0.031 µg/mL
MIC ATB combined with Example 16 @4 μg/ml (KPN BAA-1898; KPN BAA-1898, with Example 16 at 4 μg/ml): <0.031 µg/mL
MIC (KPN BAA-1898): > 128 µg/mL
MIC (KPN BAA-1898; KPN BAA-1898, antibiotic alone, read-out: MIC ATB alone): > 512 µg/mL
MIC ATB combined with Example 1 @8 μg/ml (KPN UFR42; KPN UFR42, with Example 1 @8 μg/ml): >32 µg/mL
MIC ATB combined with Example 1 @8 μg/ml (KPN UFR42; KPN UFR42, with Example 1 at 8 μg/ml): >32 µg/mL
MIC ATB combined with Example 7 @8 μgml (KPN UFR42; KPN UFR42, with Example 7 at 8 μg/ml): >32 µg/mL
MIC ATB combined with Example 9 @4 μg/ml (KPN UFR42; KPN UFR42, with Example 9 @4 μg/ml): >32 µg/mL
MIC ATB combined with Example 9 @4 μg/ml (KPN UFR42; KPN UFR42, with Example 9 at 4 μg/ml): >32 µg/mL
MIC ATB combined with Example 11 @8 μg/ml (KPN UFR42; KPN UFR42, with Example 11 at 8 μg/ml): <0.031 µg/mL
MIC ATB combined with Example 12 @8 μg/ml (KPN UFR42; KPN UFR42, with Example 12 at 8 μg/ml): <0.031 µg/mL
MIC ATB combined with Example 13 @8 μg/ml (KPN UFR42; KPN UFR42, with Example 13 at 8 μg/ml): >32 µg/mL
MIC ATB combined with Example 14 @8 μg/ml (KPN UFR42; KPN UFR42, with Example 14 at 8 μg/ml): <0.031 µg/mL
MIC ATB combined with Example 15 @4 μgml (KPN UFR42; KPN UFR42, with Example 15 at 4 μg/ml): <0.031 µg/mL
MIC ATB combined with Example 16 @4 μg/ml (KPN UFR42; KPN UFR42, with Example 16 at 4 μg/ml): <0.031 µg/mL
MIC (KPN UFR42): > 128 µg/mL
MIC (KPN UFR42; KPN UFR42, antibiotic alone, read-out: MIC ATB alone): > 256 µg/mL
MIC ATB combined with Example 1 @8 μg/ml (ECL P99; with Example 1 @8 μg/ml): 0.063 µg/mL
MIC ATB combined with Example 1 @8 μg/ml (ECL P99; with Example 1 at 8 μg/ml): 0.063 µg/mL
MIC ATB combined with Example 7 @8 μgml (ECL P99; with Example 7 at 8 μg/ml): 16 µg/mL
MIC ATB combined with Example 9 @4 μg/ml (ECL P99; with Example 9 @4 μg/ml): <0.031 µg/mL
